Results as given in patent publication US8569301B2, “6, 6-dioxo-6-thia-1, 4-diaza-naphthalenes as herbicides” (Syngenta Limited, priority 2009, dated 2013).

Experiments:
Format in all cases: in vivo
Details in all cases: sprayed after 8 days cultivation, evaluated after 13 days, scores from 10 to 0 (10=total damage to plant; 0=no damage to plant)
[1] = system: SOLNI; test: Example B1 herbicidal action post-emergence, SOLNI
Method: (§1) Seeds of a variety of test species were sown in standard soil in pots. After 8 days cultivation (post-emergence) under controlled conditions in a glasshouse (at 24/16° C., day/night; 14 hours light; 65% humidity), the plants were sprayed with an aqueous spray solution derived from the formulation of the technical active ingredient in acetone/water (50:50) solution containing 0.5% Tween 20 (polyoxyethelyene sorbitan monolaurate, CAS RN 9005-64-5). The test plants were then grown under controlled conditions in a glasshouse (at 24/16° C., day/night; 14 hours light; 65% humidity) and watered twice daily. After 13 days, the test was evaluated and the assessed scores, from 10 to 0, are tabulated in Table B1 (10=total damage to plant; 0=no damage to plant).

[2] = system: AMARE; test: Example B1 herbicidal action post-emergence, AMARE
Method: as §1

[3] = system: SETFA; test: Example B1 herbicidal action post-emergence, SETFA
Method: as §1

[4] = system: ECHCG; test: Example B1 herbicidal action post-emergence, ECHCG
Method: as §1

[5] = system: IPOHE; test: Example B1 herbicidal action post-emergence, IPOHE
Method: as §1

SMILES | assessed score, application post-emergence, SOLNI ([1]; Rate 1000 g/ha) | assessed score, application post-emergence, AMARE ([2]; Rate 1000 g/ha) | assessed score, application post-emergence, SETFA ([3]; Rate 1000 g/ha) | assessed score, application post-emergence, ECHCG ([4]; Rate 1000 g/ha) | assessed score, application post-emergence, IPOHE ([5]; Rate 1000 g/ha) | assessed score, application post-emergence, SOLNI ([1]; Rate 250 g/ha) | assessed score, application post-emergence, AMARE ([2]; Rate 250 g/ha) | assessed score, application post-emergence, SETFA ([3]; Rate 250 g/ha) | assessed score, application post-emergence, ECHCG ([4]; Rate 250 g/ha) | assessed score, application post-emergence, IPOHE ([5]; Rate 250 g/ha)
C#CCC1c2nccnc2C(O)=C(c2c(Cl)cccc2C(F)(F)F)S1(=O)=O (racemic) [Compound E2] | 8 | 10 | 8 | 8 | 8 | – | – | – | – | –
CC1c2nccnc2C(O)=C(c2c(Cl)cccc2C(F)(F)F)S1(=O)=O (racemic) [Compound E3] | 8 | 9 | 8 | 8 | 8 | – | – | – | – | –
O=S1(=O)C(c2c(Cl)cccc2C(F)(F)F)=C(O)c2nccnc2C1CC(F)F (racemic) [Compound E4] | 8 | 9 | 6 | 6 | 7 | – | – | – | – | –
CCC1c2nccnc2C(O)=C(c2cc(Cl)ccc2C(F)(F)F)S1(=O)=O (racemic) [Compound E6] | 8 | 8 | 3 | 5 | 7 | – | – | – | – | –
O=S1(=O)C(c2cc(Cl)ccc2C(F)(F)F)=C(O)c2nccnc2C1CC(F)F (racemic) [Compound E7] | – | – | – | – | – | 7 | 6 | 2 | 2 | 7
O=S1(=O)Cc2nccnc2C(O)=C1c1c(F)ccc(Cl)c1Cl [Compound C1, 7-(2,3-dichloro-6-fluoro-phenyl)-6,6-dioxo-5,6-dihydro-6-λ-6-thia-1,4-diaza-naphthalen-8-ol] | 8 | 10 | 8 | 7 | 8 | – | – | – | – | –
O=S1(=O)Cc2nccnc2C(O)=C1c1cc(C(F)(F)F)ccc1Cl [Compound C2] | 0 | 0 | 0 | 0 | 0 | – | – | – | – | –
O=S1(=O)Cc2nccnc2C(O)=C1c1cc(Cl)cc(C(F)(F)F)c1 [Compound C3] | 0 | 0 | 0 | 0 | 0 | – | – | – | – | –
Cc1cccc(F)c1C1=C(O)c2nccnc2CS1(=O)=O [Compound C4] | 4 | 7 | 5 | 3 | 2 | – | – | – | – | –
COc1ccc(Cl)c(C2=C(O)c3nccnc3CS2(=O)=O)c1F [Compound C5] | 4 | 3 | 4 | 1 | 3 | – | – | – | – | –
O=S1(=O)Cc2nccnc2C(O)=C1c1c(F)cccc1C(F)(F)F [Compound C6] | 3 | 4 | 2 | 1 | 0 | – | – | – | – | –
O=S1(=O)Cc2nccnc2C(O)=C1c1cc(Cl)ccc1C(F)(F)F [Compound C7, 7-(5-chloro-2-trifluoromethyl-phenyl)-6,6-dioxo-5,6-dihydro-6-thia-1,4-diaza-naphthalen-8-ol] | 8 | 8 | 8 | 6 | 7 | – | – | – | – | –
O=S1(=O)Cc2nccnc2C(O)=C1c1ccc(F)cc1Cl [Compound C8] | 7 | 5 | 5 | 3 | 1 | – | – | – | – | –
O=S1(=O)Cc2nccnc2C(O)=C1c1ccccc1OC(F)F [Compound C9] | 4 | 6 | 7 | 3 | 1 | – | – | – | – | –
O=S1(=O)Cc2nccnc2C(O)=C1c1cccc(F)c1C(F)(F)F [Compound C10] | 8 | 6 | 6 | 5 | 6 | – | – | – | – | –
O=S1(=O)Cc2nccnc2C(O)=C1c1ccccc1C(F)(F)F [Compound C11] | 7 | 7 | 7 | 5 | 5 | – | – | – | – | –
O=S1(=O)Cc2nccnc2C(O)=C1c1c(F)ccc(F)c1Cl [Compound C12] | 8 | 8 | 6 | 3 | 6 | – | – | – | – | –
O=S1(=O)Cc2nccnc2C(O)=C1c1c(Cl)cccc1C(F)(F)F [Compound C13] | 2 | 8 | 8 | 8 | 8 | – | – | – | – | –
O=S1(=O)Cc2nccnc2C(O)=C1c1ccccc1I [Compound C14] | 7 | 8 | 7 | 7 | 8 | – | – | – | – | –
O=S1(=O)Cc2nccnc2C(O)=C1c1cc(F)ccc1Cl [Compound C15] | 8 | 7 | 6 | 5 | 3 | – | – | – | – | –
O=S1(=O)Cc2nccnc2C(O)=C1c1cc(C(F)(F)F)ccc1C(F)(F)F [Compound C16] | 10 | 9 | 3 | 5 | 7 | – | – | – | – | –
O=S1(=O)Cc2nccnc2C(O)=C1c1ccc(Cl)cc1C(F)(F)F [Compound C17] | 10 | 10 | 8 | 8 | 7 | – | – | – | – | –
O=S1(=O)Cc2nccnc2C(O)=C1c1c(Cl)ccc(Cl)c1Cl [Compound C18] | 8 | 7 | 8 | 8 | 8 | – | – | – | – | –
